In BigSolDB 2.1:

CC(=O)NC1CCSC1=O (stereo not given)
solubility (mole fraction)
Settings | 278.15 K | 283.15 K | 288.15 K | 293.15 K | 298.15 K | 303.15 K | 308.15 K | 313.15 K | 318.15 K | 323.15 K
in methanol | – | – | – | – | – | 0.192 | 0.222 | 0.253 | 0.288 | 0.321
in methyl acetate | 0.0229 | 0.0271 | 0.033 | 0.0401 | 0.0478 | 0.0559 | 0.0673 | 0.081 | 0.0965 | 0.119
in n-butanol | 0.0244 | 0.0301 | 0.0388 | 0.047 | 0.0574 | 0.0692 | 0.0846 | 0.104 | 0.128 | 0.159
in n-butyl acetate | 0.0119 | 0.0141 | 0.0169 | 0.0194 | 0.0228 | 0.0263 | 0.0307 | 0.0364 | 0.0411 | 0.0496
in n-pentanol | 0.0232 | 0.0294 | 0.0362 | 0.0429 | 0.0532 | 0.0646 | 0.0769 | 0.093 | 0.114 | 0.14
in n-propanol | 0.0282 | 0.0343 | 0.0456 | 0.0553 | 0.0678 | 0.0839 | 0.104 | 0.129 | 0.159 | 0.197
in n-propyl acetate | 0.0131 | 0.0155 | 0.0187 | 0.0217 | 0.0257 | 0.0296 | 0.0351 | 0.0411 | 0.0486 | 0.0575
